Laboratory results from patent US10752598B2, “Aryldiazepine derivatives as RSV inhibitors” (Enanta Pharmaceuticals, Inc., priority 2017, dated 2020).
pEC50: −log10 of the molar value.

These compounds were tested on Human RSV-A (“Long” strain) (assay: RSV-A in vitro cytoprotection (CPE) assay in HEp-2 cells, ATPlite readout). Details: human respiratory syncytial virus, 96 h, 4-day incubation, ATPlite cell viability.
Type: cell-based
Text: RSV is a single stranded negative sense RNA virus that causes respiratory tract infections which can be dangerous to infants, the elderly, and immunosuppressed individuals. Currently there is no vaccine, and therapeutic options are both costly and of limited effectiveness. These approved treatments are Ribavirin, and Palivizumab/Synagis (a monoclonal antibody). RSV has two genotypes, A and B, which differ primarily in the structure of the virus' surface “G” attachment protein. Our current primary screen focusses on RSV-A and uses an in vitro cytoprotection assay where compounds are added in 2-fold dilutions to cells which are then subjected to fully replicative viral particles. Cell viability is measured several days later along with separate measurements of compound cytotoxicity. This report focuses on the results of our most recent screening of compounds.
HEp-2 cells, (originally derived from tumors grown in irradiated-cortisonised weanling rats that had been injected with epidermoid carcinoma tissue from a person's larynx, but later found to be indistinguishable from HeLa cells by PCR DNA analysis), were used for the culturing of genotype A, “Long” strain RSV. Flasks were inoculated with RSV and viral stocks were collected once cytopathic effect (CPE) was greater than 90%. Viral stocks in 25% sucrose media were snap frozen using liquid nitrogen to increase viral stability. Viral stock titers were quantified by tissue culture infectious dose 50% (TCID50) using 8,000 cells per well and 3-fold viral dilutions across a 96-well plate, cultured for 4 days.
Following extensive parameter testing, the final assay is run as follows: HEp-2 cells are seeded into the inner 60 wells of a 96-well plate at 8,000 cells per well in a volume of […] Growth Media (DMEM without phenol red, 1% L-Glut, 1% Penn/Strep, 1% nonessential amino acids, 10% FBS). 2-fold serial dilutions of control and test compounds are added to the wells in duplicate in a total volume of 25 μL. Viral stock is then added to the wells in a volume of 25 μL, bringing the total volume of each well to 100 μL. Each 96-well plate has a control column of 6 wells with cells and virus but no compound (negative control, max CPE), a column with cells but no compound or virus (positive control, minimum CPE), and a column with no cells or virus or compound (background plate/reagent control). The control wells with cells but no virus are given an additional 25 uL of growth media containing an equal quantity of sucrose as those wells receiving the viral stock in order to keep consistent in media and volume conditions. The outer wells of the plate are filled with 125 μL of growth media to act as a thermal and evaporative moat around the test wells. Following a 4-day incubation period, the plates are read using ATPlite (50 uL added per well), which quantifies the amount of ATP (a measure of cell health) present in each well. Assay plates are read using the Envision luminometer. […] EC50 ranges are as follows: A<2 μM; B 2-5 μM; C>5 μM.

**Q.** With `O=C1Nc2ccccc2N(c2ccccc2)C[C@@H]1Nc1nnc(-c2ccccc2)o1` [Example 1, (S)-5-phenyl-3-((5-phenyl-1,3,4-oxadiazol-2-yl)amino)-1,3,4,5-tetrahydro-2H-benzo[b][1,4]diazepin-2-one] as the compound, how does the pEC50 read?
**A.** Its pEC50 is < 5.30.

**Q.** How did the pEC50 turn out when `O=C1Nc2ccccc2N(c2ccccc2)C[C@@H]1Nc1nc2ccccc2o1` [Example 2, (S)-3-(benzo[d]oxazol-2-ylamino)-5-phenyl-1,3,4,5-tetrahydro-2H-benzo[b][1,4]diazepin-2-one] was run?
**A.** The pEC50 was < 5.30.

**Q.** How did the pEC50 turn out when `O=C(Nc1ccccc1)N[C@H]1CN(c2ccccc2)c2ccccc2NC1=O` [Example 3] was run?
**A.** Its pEC50 is < 5.30.

**Q.** With `O=C(N[C@H]1CN(c2ccccc2)c2ccccc2NC1=O)c1ccccc1` [Example 4, (S)—N-(4-oxo-1-phenyl-2,3,4,5-tetrahydro-1H-benzo[b][1,4]diazepin-3-yl)benzamide] as the compound, how does the pEC50 read?
**A.** Its pEC50 is < 5.30.

**Q.** How did the pEC50 turn out when `O=C1Nc2ccccc2N(c2ccccc2)C[C@@H]1Nc1nnc(-c2ncc(C(F)(F)F)cc2N2CCOCC2)o1` [Example 5, (S)-3-((5-(3-morpholino-5-(trifluoromethyl)pyridin-2-yl)-1,3,4-oxadiazol-2-yl)amino)-5-phenyl-1,3,4,5-tetrahydro-2H-benzo[b][1,4]diazepin-2-one] was run?
**A.** The pEC50 was > 5.70.

**Q.** `O=C1Nc2ccccc2N(c2ccccc2)C[C@@H]1Nc1nnc(-c2cccnc2N2CCOCC2)o1` [Example 6] was tested. Which pEC50 did it give?
**A.** The pEC50 was 5.30 to 5.70.

**Q.** `O=C1Nc2ccccc2N(c2ccccc2)C[C@@H]1Nc1nnc(-c2ncc(C3CC3)cc2N2CCOCC2)o1` [Example 7] was tested. Which pEC50 did it give?
**A.** Its pEC50 is > 5.70.

**Q.** `COCCNc1cc(C(F)(F)F)cnc1-c1nnc(N[C@H]2CN(c3ccccc3)c3ccccc3NC2=O)o1` [Example 8] was tested. Which pEC50 did it give?
**A.** The pEC50 was < 5.30.

**Q.** How did the pEC50 turn out when `Cc1ccc(-c2nnc(N[C@H]3CN(c4ccccc4)c4ccccc4NC3=O)o2)o1` [Example 9] was run?
**A.** Its pEC50 is < 5.30.

**Q.** `O=C1Nc2ccccc2N(c2ccccc2)C[C@@H]1Nc1nnc(-c2cn(C3CCCC3)nc2N2CCOCC2)o1` [Example 10] was tested. Which pEC50 did it give?
**A.** Its pEC50 is > 5.70.

**Q.** How did the pEC50 turn out when `O=C1Nc2ccccc2N(c2ccccc2)C[C@@H]1Nc1nnc(-c2ccc(F)cc2)o1` [Example 11] was run?
**A.** Its pEC50 is < 5.30.

**Q.** `O=C1Nc2ccccc2N(c2ccccc2)C[C@@H]1Nc1nnc(-c2ccc(N3CCOCC3)cc2F)o1` [Example 12] was tested. Which pEC50 did it give?
**A.** The pEC50 was < 5.30.

**Q.** With `O=C1Nc2ccccc2N(c2ccccc2)C[C@@H]1Nc1nnc(-c2cn(-c3ccccn3)nc2N2CCOCC2)o1` [Example 13] as the compound, how does the pEC50 read?
**A.** Its pEC50 is 5.30 to 5.70.

**Q.** How did the pEC50 turn out when `O=C1Nc2ccccc2N(c2ccccc2)C[C@@H]1Nc1nnc(-c2nc(C(F)(F)F)sc2N2CCOCC2)o1` [Example 14, (S)-3-((5-(5-morpholino-2-(trifluoromethyl)thiazol-4-yl)-1,3,4-oxadiazol-2-yl)amino)-5-phenyl-1,3,4,5-tetrahydro-2H-benzo[b][1,4]diazepin-2-one] was run?
**A.** The pEC50 was > 5.70.

**Q.** `O=C1Nc2ccccc2N(c2ccccc2)C[C@@H]1Nc1nnc(-c2nc(C3CC3)sc2N2CCOCC2)o1` [Example 15] was tested. Which pEC50 did it give?
**A.** The pEC50 was > 5.70.

**Q.** `O=C1Nc2ccccc2N(c2ccccc2)C[C@@H]1Nc1nnc(-c2nc(-c3cccnc3)sc2N2CCOCC2)o1` [Example 16] was tested. Which pEC50 did it give?
**A.** Its pEC50 is > 5.70.

**Q.** `O=C1Nc2ccccc2N(c2cc(F)c(F)c(F)c2)C[C@@H]1Nc1nnc(-c2ncc(C(F)(F)F)cc2N2CCOCC2)o1` [Example 17] was tested. Which pEC50 did it give?
**A.** The pEC50 was < 5.30.

**Q.** With `O=C1Nc2ccccc2N(c2ccccc2)C(=O)C1Nc1nnc(-c2ccccc2)o1` (centres unmarked) [Example 19] as the compound, how does the pEC50 read?
**A.** Its pEC50 is < 5.30.

**Q.** With `O=C(Nc1ccccc1)NC1C(=O)Nc2ccccc2N(c2ccccc2)C1=O` (centres unmarked) [Example 20] as the compound, how does the pEC50 read?
**A.** The pEC50 was < 5.30.

**Q.** How did the pEC50 turn out when `O=C(NC1C(=O)Nc2ccccc2N(c2ccccc2)C1=O)c1ccccc1` (centres unmarked) [Example 21] was run?
**A.** Its pEC50 is < 5.30.
